pIC50: −log10 of the molar value. Read-outs that look alike come from different tables or passages of the source.
Columns and labels:
[1] = system: SOX17 (endoderm marker) in RUES2-GLR cells; experiment: DevTox GLR-Endo assay: decrease in percent SOX17-positive cells (AEID 3094, Sox17_dn); details: for AC50 / Emax: Homo sapiens; for Hit Call: Table S2, SOX17-positive cells, cutoff 3*bmad; for DevTox ACC: Table S2, percent SOX17-positive cells, 48 h exposure; for HIT−CALL: tcpl plot AEID3094, COFF 20.3
Method in brief: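 Readouts are loss of SOX17-positive fraction and reduced cell number in endoderm-differentiating RUES2-GLR cells after 48 h of chemical exposure. Controls: undifferentiated and differentiated cells, 0.2% DMSO, and 1 µM SB431542; at least four biological replicates.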

in vitro = details: human
RUES2-GLR cells = experiment: DevTox GLR-Endo assay: decrease in total cell count, cytotoxicity (AEID 3098, CellCount_dn); details: for Emax: Homo sapiens, read-out: Cell Count % Max Inhibition
[2] = system: SOX17 (endoderm marker) in RUES2-GLR cells; experiment: DevTox GLR-Endo assay: increase in percent SOX17-positive cells (AEID 3093, Sox17_up); type: cell-based, human; details: for Emax: Homo sapiens; for HIT−CALL: tcpl plot AEID3093, COFF 20.3
Experimental: The total test chemical incubation period was 48 h.
(Supplementary Materials).

[3] = system: SOX17 in H9 human ESC line; details: SOX17 half-maximal inhibition concentration; read-out: hPST IC50; cited from earlier work
H9 human ESC line = details: cited from earlier work
[4] = cited from earlier work; for Development Toxicant Classification: Table S2; for Classification: developmental toxicant classification (Teratogen / Non-Teratogen) of reference and training chemicals, ref DOI per chemical: 10.1093/toxsci/kft239, 10.1093/toxsci/kfaa014, 10.1177/026119290203000204, 10.1038/s41598-020-59542-x; for DT Class.: developmental toxicant classification, chemicals common with hPST
[5] = system: SOX2 (ectoderm and pluripotency marker) in RUES2-GLR cells; experiment: DevTox GLR-Endo assay: increase in percent SOX2-positive cells (AEID 3095, Sox2_up); details: for AC50 / Emax: Homo sapiens; for AC50: read-out: ga (winning model); for Emax: read-out: tp (winning model); for MAX_MEAN: tcpl plot AEID3095, maximum mean response; for MAX_MED: tcpl plot AEID3095, maximum median response;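 as to all read-outs here: cells exposed to test chemicals for 48 h in total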
[6] = 48 h, read-out: DevTox-GLR Endo AC50 (µM), SOX17 half-maximal activity concentration, 48 h exposure
[7] = read-out: DevTox % Max Inhibition
[8] = read-out: ga (winning model), tcpl plot AEID3094, gain parameter of winning curve fit (log concentration, µM axis), hit calls only (converted)
[9] = tcpl plot AEID3093, maximum mean response, read-out: MAX_MEAN
[10] = tcpl plot AEID3093, maximum median response, read-out: MAX_MED
[11] = cytotoxicity half-maximal concentration
[12] = RUES2-GLR cells under directed endoderm differentiation

SMILES	Emax [1, 7] [%]	Emax ([1]; read-out: MAX_MEAN) [%]	Emax ([1]; read-out: MAX_MED) [%]	Emax ([1]; read-out: tp (winning model)) [%]	Hit Call [1]	DevTox ACC [1] [µM]	HIT−CALL [1]	Emax (RUES2-GLR cells) [%]	Emax [2, 9] [%]	Emax [2, 10] [%]	HIT−CALL [2]	pIC50 [3]	hPST TC50 (H9 human ESC line; [11]) [nM]	hPST TC50 (H9 human ESC line; hPST cytotoxicity) [nM]	Development Toxicant Classification [4]	Classification [4]	DT Class. [4]	AC50 [5] [nM]	Emax [5] [%]	MAX_MEAN [5] [Percent Activity]	also measured
O=c1[nH]c(=O)n([C@H]2C[C@H](O)[C@@H](CO)O2)cc1Br [5-Bromo-2’-deoxyuridine]	102	102	102	101	Positive	0.4591	1	87.6	-2.88	-2.98	0	6.70	3400	3400	Positive	Teratogen	Pos	13200	2.13	2.12	SOX17 ACC relative to cytotoxic concentration (in words) [1]: below cytotoxic concentrations; AC50 [1, 6]: 0.55 µM; AC50 [1, 8]: 0.548 µM; CC50 at 48 h (in vitro): 9370 nM; Cell Count ACC (RUES2-GLR cells; human, 48 h): 3.994 µM; MAX_MED [5]: 2.23 Percent Activity
CCN(CC)CCNC(=O)c1c(C)[nH]c(/C=C2\C(=O)Nc3ccc(F)cc32)c1C [Sunitinib]	102	102	102	101	Positive	0.5184	1	97.7	0.538	0.596	0	5.55	3600	3600	Positive	Teratogen	Pos	5410	6.74	3	SOX17 ACC relative to cytotoxic concentration (in words) [1]: below cytotoxic concentrations; AC50 [1, 6]: 0.63 µM; AC50 [1, 8]: 0.628 µM; CC50 at 48 h (in vitro; [12]): 1260 nM; Cell Count ACC (RUES2-GLR cells; Table S2, 48 h exposure): 0.6087 µM; MAX_MED [5]: 3.23 Percent Activity
c1cc(-c2cnn3cc(-c4ccc(OCCN5CCCCC5)cc4)cnc23)ccn1 [Dorsomorphin]	99.6	99.4	99.6	114	Positive	8.65	1	95.1	9.04	8.93	0	6.52	2400	2400	Positive	Teratogen	Pos	10700	38.7	16.8	AC50 [1, 6]: 17.1 µM; AC50 [1, 8]: 17 µM; CC50 at 48 h (in vitro): 16700 nM; Cell Count ACC (RUES2-GLR cells; human, 48 h): 6.307 µM; MAX_MED [5]: 17 Percent Activity
NC(=O)c1ccc(N)nc1 [6-Aminonicotinamide, 6−aminopyridine−3−carboxamide]	101	101	101	101	Positive	12.5605	1	89.9	2.7	3	0	5.15	8000	8000	Positive	Teratogen	Pos	309000	9.6	4.77	AC50 ([1]; 48 h, read-out: DevTox-GLR Endo AC50 (µM)): 16.6 µM; AC50 ([1]; read-out: ga (winning model)): 16.6 µM; SOX17 ACC relative to cytotoxic concentration (in words) ([1]; training set, ACC versus cell count ACC): below cytotoxic concentrations; CC50 (in vitro): 23800 nM; Cell Count ACC (RUES2-GLR cells; Table S2, 48 h exposure): 20.3443 µM; MAX_MED [5]: 4.39 Percent Activity
Cc1nc(Nc2ncc(C(=O)Nc3c(C)cccc3Cl)s2)cc(N2CCN(CCO)CC2)n1 [Dasatinib]	102	102	102	102	Positive	0.3299	1	96	5.98	3.77	0	> 6.00	<1000	< 1000	Positive	Teratogen	Pos	148000	85.8	63.7	AC50 [1, 6]: 0.72 µM; AC50 [1, 8]: 0.721 µM; CC50 at 48 h (in vitro): 50 nM; Cell Count ACC (RUES2-GLR cells; human, 48 h): 0.005325 µM; MAX_MED [5]: 64.4 Percent Activity
CNC(=O)c1cc(Oc2ccc(NC(=O)Nc3ccc(Cl)c(C(F)(F)F)c3)cc2)ccn1 [Sorafenib]	102	102	102	101	Positive	0.5004	1	95.8	8.73	9.19	0	> 5.70	<2000	< 2000	Positive	Teratogen	Pos	748	8.9	13.6	AC50 [1, 6]: 0.62 µM; AC50 [1, 8]: 0.618 µM; CC50 at 48 h (in vitro; [12]): 610 nM; Cell Count ACC (RUES2-GLR cells; Table S2, 48 h exposure): 0.4993 µM; MAX_MED [5]: 11.9 Percent Activity
